In patent EP2468303A1, “Functionalized nucleic acids and particles comprising them for the treatment of HIV infections” (priority 2010, dated 2012) one finds viral replication blocked data, which are given here for one molecule.

In this test the test system is pNL4.3 virus. In words: Time-of-addition experiment in single-round infection assay. The following applies: Hela P4 cells, 100 nM, whatever the time of addition post-infection. The class given is cell-based, HIV-1. From the text:
Antiviral activity was quantified using the above-described CPRG assay.

Molecule `Cc1nnc(C(=O)NC(C)(C)c2nc(C(=O)NCc3ccc(F)cc3)c(O)c(=O)n2C)o1` [raltegravir] yielded a viral replication blocked of under 100%.
